According to US20230226212A1, “MUSCLE-TARGETING COMPLEXES AND USES THEREOF” (Dyne Therapeutics, Inc., priority 2020, published 2023):
Read-outs that look alike come from different tables or passages of the source.

How the values were obtained:
DMPK [1] = assay: DMPK knockdown by unconjugated PMOs in primary human myotubes (Example 23); assay type: cell-based; details: unconjugated PMO; 3 days; qPCR
Experimental: Additional DMPK targeting oligonucleotides (PMOs) were designed and tested for their activity in reducing DMPK expression in primary human myotubes. Wild-type primary myoblasts were cultured in PromoCell Skeletal Muscle growth medium with 5% FBS and penicillin/streptomycin until nearly confluent. Cells were then seeded into a 96 well plate at 50000 cells per well and allowed to recover for 24 hours. Cells were then differentiated in a differentiation medium of DMEM with glutamine and penicillin/streptomycin for 7 days. Cells were then treated with the unconjugated PMO for 3 days. Total RNA was collected from cells, cDNA was synthesized and DMPK expression was measured by qPCR.

DMPK [2] = assay: DMPK expression in NHP myotubes (Example 15); assay type: cell-based; details: dose-responsive
From the text: (§1) The antisense oligonucleotides were further assessed to identify oligos that are safe in vivo (e.g., as indicated by low immunogenicity as measured by cytokine induction), and further based on manufacturability and secondary structure considerations. Three antisense oligonucleotides, […] (SEQ ID NO: 329, DMPK-ASO-1), […] (SEQ ID NO: 330, DMPK-ASO-2), and […] (SEQ ID NO: 331, DMPK-ASO-3) were selected. These oligonucleotides were then further evaluated for their ability to reduce DMPK expression in DM1 myotubes and NHP myotubes in a dose-responsive manner. The tool compound control DMPK-ASO was used as control.

DMPK [3] = assay: DMPK expression in DM1 myotubes (Example 15); assay type: cell-based; details: dose-responsive
From the text: as §1

DMPK [4] = assay: DMPK transcript knockdown by oligonucleotides in RD cells (Example 21); assay type: cell-based; details: free or transfected oligonucleotide, 3 days, relative to PBS-treated cells
Experimental: DMPK-targeting oligonucleotides (e.g., ASO) were tested in rhabdomyosarcoma (RD) cells for knockdown of DMPK transcript expression. RD cells were cultured in a growth medium of DMEM with glutamine, supplemented with 10% FBS and penicillin/streptomycin until nearly confluent. Cells were then seeded into a 96 well plate at 20 K cells per well and were allowed to recover for 24 hours. Cells were then treated with free DMPK-targeting oligonucleotides or by transfection of the oligonucleotides using 0.3 µL per well of Lipofectamine MessengerMAX transfection reagent. After 3 days, total RNA was collected from cells, cDNA was synthesized and DMPK expression was measured by qPCR.

mdx mice [5] = assay: cage running wheel test in mdx mice (Example 14); assay type: in vivo, mouse; details: single i.v. dose 30 mg/kg, four weeks after injection, 24-hour period
Experimental: (§2) Each experimental condition was replicated in five mdx mice. Five wild-type mice (healthy mice) were also dosed with vehicle control (saline).
Four weeks after injection, the activity of all treated mice was determined using a cage running wheel test. Each mouse was individually placed into cages with a running wheel for a 24-hour period. The 24-hour period involved five hours of light on followed by thirteen hours of darkness, and ending with six hours of light. The total distance traveled (in meters, m) by each mouse on the running wheel was continuously collected throughout the 24-hour period and subsequently binned into discrete one-hour increments.

mdx mice [6] = assay: open field chamber with hind limb fatigue challenge in mdx mice (Example 14); assay type: in vivo, mouse; details: single i.v. dose 30 mg/kg, two weeks after injection, hind limb fatigue challenge between stages
Experimental: as §2
Two weeks after injection, the functional activity of all treated mice was determined using an open field chamber experiment. The experiment involved three consecutive stages: (1) a 10-minute period during which each mouse was placed into an open field chamber; (2) a 10-minute period during which each mouse was subjected to a hind limb fatigue challenge; and (3) a 10-minute period during which each mouse was placed into an open field chamber. The total horizontal distances traveled during stages (1) and (3) were collected. The percent change in the total distance traveled between the first and second tests.

creatine kinase = creatine kinase activity levels in mdx mice (Example 14); assay type: in vivo, mouse; details: single i.v. dose 30 mg/kg, two and four weeks after injection
Experimental: as §2
All mice in this Example were further tested for creatine kinase activity levels two weeks and four weeks after injection.

DUX4 [7] = assay: expression of DUX4-associated genes in FSHD patient-derived myotubes (Example 26); assay type: cell-based
Experimental: FSHD patient-derived myotubes were treated with FM-10 conjugated to an anti-TfRl Fab or naked FM-10. FM-10 has the sequence 5′-[…]-3′ (SEQ ID NO: 260). Expression of mRNA transcribed from three genes known to be only expressed following DUX4 activation was subsequently measured in the myotubes. Expression of these three DUX4-associated genes was reduced, as shown in FIG. 41A (naked oligonucleotide) and 41B (Ab-oligonucleotide).

DUX4 [8] = assay: expression of downstream DUX4 genes in U-2 OS cells (Example 12); assay type: cell-based, human; details: 72 hours
Experimental: Human U-2 OS cells were dosed with the complex. Briefly, U-2 OS cells were seeded at a density of 10 k cells/well before being allowed to recover overnight. […] Cells were incubated for 72 hours before being harvested for total RNA. cDNA was then synthesized from the total RNA extracts and qPCR was performed to determine expression of downstream DUX4 genes (ZSCAN4, MBD3L2, TRIM43) in technical quadruplicate. All qPCR data were analyzed using a standard ΔΔCT method and were normalized to a plate-based negative control comprised of untreated cells (i.e., without any oligonucleotide). Results were then converted to fold change to evaluate efficacy.

[9] = target: human transferrin receptor 1 (human) (UniProt P02786); assay: Carterra LSA biosensor, IgG captured on anti-IgG lawn, hTfR1 injected, 25C, 1:1 fit
human transferrin receptor 1 (human), sequence (P02786 89-760 limits assumed): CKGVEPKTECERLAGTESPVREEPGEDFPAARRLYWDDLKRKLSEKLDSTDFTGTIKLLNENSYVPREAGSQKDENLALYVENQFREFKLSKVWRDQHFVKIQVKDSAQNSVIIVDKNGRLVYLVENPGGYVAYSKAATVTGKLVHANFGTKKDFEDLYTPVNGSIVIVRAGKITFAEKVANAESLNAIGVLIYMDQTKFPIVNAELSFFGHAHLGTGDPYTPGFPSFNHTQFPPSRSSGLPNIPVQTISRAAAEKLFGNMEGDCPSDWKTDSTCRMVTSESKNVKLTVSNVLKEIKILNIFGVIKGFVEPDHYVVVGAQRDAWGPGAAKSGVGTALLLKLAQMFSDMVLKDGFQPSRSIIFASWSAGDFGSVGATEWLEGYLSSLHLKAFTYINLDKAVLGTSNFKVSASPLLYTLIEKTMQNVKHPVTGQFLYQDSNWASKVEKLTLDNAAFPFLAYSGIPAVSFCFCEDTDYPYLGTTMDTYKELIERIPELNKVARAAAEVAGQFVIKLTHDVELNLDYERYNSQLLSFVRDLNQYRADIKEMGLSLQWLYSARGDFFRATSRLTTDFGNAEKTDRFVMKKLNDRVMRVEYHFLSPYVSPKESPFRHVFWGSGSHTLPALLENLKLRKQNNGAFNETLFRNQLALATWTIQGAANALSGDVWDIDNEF

“ACGATGGGCTCCGCTGGG (SEQ ID NO: 316) (all phosphorodiamidate morpholino (PMO)) [PMO 8, DMPK-targeting PMO, Exon 2]” was tested, and the “% DMPK Knockdown in Primary Human Myotubes” value (“% DMPK Knockdown” for short) (DMPK [1]) was 60%.
With “AGGGCAGTGCTTACCTGAGGG (SEQ ID NO: 326) (all phosphorodiamidate morpholino (PMO)) [PMO 41, DMPK-targeting PMO, Intron 9-10]” the “% DMPK Knockdown” value (DMPK [1]) was 57%.
In the case of “AGGTACTGAGAAGGGTTCGTC (SEQ ID NO: 319) (all phosphorodiamidate morpholino (PMO)) [PMO 11, DMPK-targeting PMO, Exon 5]”, the “% DMPK Knockdown” value (DMPK [1]) is reported as 40%.
In the case of “ATGACCAGGTACTGAGAAGGG (SEQ ID NO: 318) (all phosphorodiamidate morpholino (PMO)) [PMO 10, DMPK-targeting PMO, Exon 5]”, the “% DMPK Knockdown” value (DMPK [1]) is reported as 33%.
“ATGGGCTCCGCTGGGTGGTGG (SEQ ID NO: 315) (all phosphorodiamidate morpholino (PMO)) [PMO 7, DMPK-targeting PMO, Exon 2]” was tested, and the “% DMPK Knockdown” value (DMPK [1]) was 11%.
“CAGGTGACAGTTCAGGTGCAG (SEQ ID NO: 309) (all phosphorodiamidate morpholino (PMO)) [PMO 1, DMPK-targeting PMO, intron 1-2]” was tested, and the “% DMPK Knockdown” value (DMPK [1]) was 59%.
With “CCACCCTCTGTCTGTCTCC (SEQ ID NO: 313) (all phosphorodiamidate morpholino (PMO)) [PMO 5, DMPK-targeting PMO, intron 1-2]” the “% DMPK Knockdown” value (DMPK [1]) was 64%.
With “CCATCCTTGGGCAGAGACCT (SEQ ID NO: 317) (all phosphorodiamidate morpholino (PMO)) [PMO 9, DMPK-targeting PMO, Intron 4-5]” the “% DMPK Knockdown” value (DMPK [1]) was 41%.
In the case of “CCAUCUCGGCCGGAAUCCGC (SEQ ID NO: 331) (chemistry not given here) [DMPK-ASO-3, DMPK-targeting antisense oligonucleotide]”, the “reduction of DMPK expression in NHP myotubes” value (“reduction … in NHP myotubes” below) (DMPK [2]) is reported as “dose-dependently reducing DMPK”, the “reduction of DMPK expression in DM1 myotubes” value (“reduction … in DM1 myotubes” for short) (DMPK [3]) is reported as “dose-dependently reducing DMPK” and the DMPK expression level (DMPK [4]) is reported as “reduced”.
In the case of “CCCAGCGCCCACCAGUCACA (SEQ ID NO: 330) (chemistry not given here) [DMPK-ASO-2, DMPK-targeting antisense oligonucleotide]”, the “reduction … in NHP myotubes” value (DMPK [2]) is reported as “dose-dependently reducing DMPK”, the “reduction … in DM1 myotubes” value (DMPK [3]) is reported as “dose-dependently reducing DMPK” and the DMPK expression level (DMPK [4]) is reported as “reduced”.
“CCTTCTCTCTGCCTCTCAGCTT (SEQ ID NO: 312) (all phosphorodiamidate morpholino (PMO)) [PMO 4, DMPK-targeting PMO, intron 1-2]” was tested, and the “% DMPK Knockdown” value (DMPK [1]) was 58%.
In the case of “CGGAGCTCACCAGGTAGTTCT (SEQ ID NO: 325) (all phosphorodiamidate morpholino (PMO)) [PMO 40, DMPK-targeting PMO, Intron 4-5]”, the “% DMPK Knockdown” value (DMPK [1]) is reported as 73%.
“GAGAAGGAAATAAGACCCAGTT (SEQ ID NO: 311) (all phosphorodiamidate morpholino (PMO)) [PMO 3, DMPK-targeting PMO, intron 1-2]” was tested, and the “% DMPK Knockdown” value (DMPK [1]) was 14%.
For “GCCTAGGGACCTGCGGGAGAG (SEQ ID NO: 321) (all phosphorodiamidate morpholino (PMO)) [PMO 13, DMPK-targeting PMO, Exon 15]”, the “% DMPK Knockdown” value (DMPK [1]) was 62%.
“GCCTTTTATTCGCGAGGGTCGG (SEQ ID NO: 322) (all phosphorodiamidate morpholino (PMO)) [PMO 14, DMPK-targeting PMO, polyA]” was tested, and the “% DMPK Knockdown” value (DMPK [1]) was 73%.
For “GCGUAGAAGGGCGUCUGCCC (SEQ ID NO: 329) (chemistry not given here) [DMPK-ASO-1, DMPK-targeting antisense oligonucleotide]”, the “reduction … in NHP myotubes” value (DMPK [2]) was “dose-dependently reducing DMPK”, the “reduction … in DM1 myotubes” value (DMPK [3]) was “dose-dependently reducing DMPK” and the DMPK expression level (DMPK [4]) was “reduced”.
For “GGCCAAACCUCGGCUUACCUGAAAU (SEQ ID NO: 261) (PMO chemistry, chemistry not fully specified) [MDX-ASO, naked exon 23 skipping PMO ASO]”, the “distance traveled on running wheel during the dark period” value (mdx mice [5]) was “traveled considerably shorter distances”, the “average less distance traveled during stage (3) relative to stage (1), open field” value (mdx mice [6]) was “about 85%” and the creatine kinase activity (creatine kinase) was “no significant benefit”.
For “GGGCATTTTAATATATCTCTGAACT (SEQ ID NO: 260) (PMO chemistry, chemistry not fully specified) [naked FM10, phosphorodiamidate morpholino oligomer (PMO) targeting DUX4]”, the “expression of three DUX4-associated genes” value (DUX4 [7]) was “reduced”, the IC50 (DUX4 [7]; MBD3L2 transcript, read-out: IC50 (nM), MBD3L2) was 1210 nM and the IC50 (DUX4 [7]; TRIM43 transcript, read-out: IC50 (nM), TRIM43) was 1120 nM. The IC50 (DUX4 [7]; ZSCAN4 transcript, read-out: IC50 (nM), ZSCAN4) was 643 nM, the “ZSCAN4, MBD3L2, and TRIM43 expression” value (DUX4 [8]; 1 µM) was “fails to reduce” and the MDB3L2 expression (DUX4 [8]; 10 µM) was “no effect”. For the same substance, the “ZSCAN4 and TRIM43 expression” value (DUX4 [8]; 10 µM) was “modest reduction”.
For “TAGGCACTCACCCACTGCAAGA (SEQ ID NO: 324) (all phosphorodiamidate morpholino (PMO)) [PMO 39, DMPK-targeting PMO, Exon 1]”, the “% DMPK Knockdown” value (DMPK [1]) was 69%.
“TAGGGACCTGCGGAGAGGGCGA (SEQ ID NO: 320) (all phosphorodiamidate morpholino (PMO)) [PMO 12, DMPK-targeting PMO, Exon 15]” was tested, and the “% DMPK Knockdown” value (DMPK [1]) was 35%.
For “TCCACCCTGACTCCAGGTGAC (SEQ ID NO: 310) (all phosphorodiamidate morpholino (PMO)) [PMO 2, DMPK-targeting PMO, intron 1-2]”, the “% DMPK Knockdown” value (DMPK [1]) was 16%.
“TCCGCTGGGTGGTGGGAAAAGAA (SEQ ID NO: 314) (all phosphorodiamidate morpholino (PMO)) [PMO 6, DMPK-targeting PMO, Exon 2]” was tested, and the “% DMPK Knockdown” value (DMPK [1]) was 9%.
For “TGGAGGGCCTTTTATTCGCGAGG (SEQ ID NO: 323) (all phosphorodiamidate morpholino (PMO)) [PMO 15, DMPK-targeting PMO, polyA]”, the “% DMPK Knockdown” value (DMPK [1]) was 66%.
In the case of “anti-TfR1 antibody OKT9 (mouse IgG, control)”, the Kd [9] is reported as 0.536 nM and the kon [9] is reported as 774000 M⁻¹ s⁻¹.
